The text below walks through data of patent US3947578A, “Omega-[4-(3"-indolyl)-piperidino]-alkyl-arylketones as nevroleptics” (Roussel Uclaf, priority 1972, dated 1976).

A short description of data set [1]: neuroleptic activity, overall (4 tests of Table I). As to conditions: summary of Table I. Format: in vivo. The method, then:
(§1) The neuroleptic activity of the compounds of Examples 1 to 8 were determined in the following 4 tests and the results are reported in Table I:
a. The traction test which consists of suspending a mouse by his front paws from a metal wire stretched horizontally. In a time less than 5 seconds, the normal animal effected recovering by managing to bring one of the rear paws to the wire. The test was run 25 minutes after intraperitoneal administration of the test product to determine the DE50 dose at which 50% of the animals effected recovering in less than 5 seconds.
(§2) b. The chimney test which consists of placing a mouse in the extreme end of a glass tube 30 cm long and with a diameter adapted to the size of the animal. This tube is straightened vertically in a rapid motion and the animal with its head down mounts normally the length of the tube in less than 30 seconds. The test was effected 25 minutes after intraperitoneal administration of the test compounds to determine the DE50 dose which is the dose at which 50% of the animals effected a mounting in less than 30 seconds.
c. The cataleptic activity test using the technique of Boissier et al [Therapie, Vol. 18 (1963), p. 1257-1277] with a young rat having slightly twisted homolaterally paws and noting the intensity of catalepsy. The DE50 dose is that dose provoking catalepsy in 50% of the animals after administration of the product.
(§3) d. The anti-emetic activity test which is determined on dogs vis-a-vis a subcutaneous injection of 0.1 mg/kg of apomorphine hydrochloride to determine the DE50 dose which is that dose which reduces 50% of the number of vomitings provoked by the injection of apomorphine hydrochloride.

For data set [2], the system named is mouse. Briefly: chimney test (neuroleptic activity). As to conditions: ip, 25 min, I.P., 25 minutes after intraperitoneal administration, read-out: DE50 Chimney Test. Format: in vivo. How it is done:
as §2

In the next data set the test system is dogs. Briefly: anti-emetic activity test vis-a-vis apomorphine hydrochloride. Format: in vivo, dog. As to conditions: Canis lupus familiaris, ip, read-out: DE50 Test of Anti-emetic Activity. The method, then:
as §1, §3

A further data set concerns young rat. Briefly: cataleptic activity test. Format: in vivo. As to conditions: ip, I.P., dose provoking catalepsy in 50% of the animals, read-out: DE50 Test of Cataleptic Activity. An excerpt: c. […] The DE50 dose is that dose provoking catalepsy in 50% of the animals after administration of the product.
The next data set in a line: acute toxicity (DL50). As to conditions: mouse, in vivo, ip; I.P.; mice; mortality recorded 48 hours after administration. The method, then:
The different products were tested for the dose which would kill 50% of mice when administered intraperitoneally (DL50).

Data set [3] has as its system mouse. The experiment in a line: traction test (neuroleptic activity). In kind it is in vivo. As to conditions: ip, 25 min, I.P., 25 minutes after intraperitoneal administration, read-out: DE50 Traction Test. The method, then: a. The traction test which consists of suspending a mouse by his front paws from a metal wire stretched horizontally. […] The test was run 25 minutes after intraperitoneal administration of the test product to determine the DE50 dose at which 50% of the animals effected recovering in less than 5 seconds.

Where [4] appears, read: I.P., dogs, subcutaneous 0.1 mg/kg apomorphine hydrochloride, 50% reduction of vomitings.

Counter-ions that a name gives are not always drawn. Like-named read-outs stand apart in the source and are kept apart here.

In the case of `COc1ccc2c(C3CCN(CCCC(=O)c4ccc(F)cc4)CC3)c(C)[nH]c2c1` [Example 5, p-fluoro-ω-[4'-(2"-methyl-6"-methoxy-3"-indolyl)-piperidino]butyrophenone], the “neuroleptic activity (in words)” value in data set [1] is “very interesting neuroleptic activity”. Besides, the ED50 in the data set with mouse [2] was found to be 0.3 mg/kg; in the data set with dogs (setting [4]), 0.0045 mg/kg; in the data set with young rat, 3.5 mg/kg; in the data set on mouse [3], 3.8 mg/kg. Further, in “acute toxicity (DL50)”, the LD50 (as a rule, the dose expected to kill half of the subjects tested) at 48 h was determined as 600 mg/kg.

For the molecule `O=C(CCN1CCC(c2c[nH]c3ccccc23)CC1)c1ccc(F)cc1` [Example 8, hydrochloride], the ED50 with mouse [2] was found to be 2.7 mg/kg; with mouse [3], 2.5 mg/kg. The same molecule yielded a 50% lethal dose (LD50) at 48 h in the data set “acute toxicity (DL50)” of 600 mg/kg.

Turning to `O=C(CCCN1CCC(c2c[nH]c3ccccc23)CC1)c1ccc(F)cc1` [Example 1, p-fluoro-ω-[4'-(3"-indolyl)-piperidino]-butyrophenone hydrochloride], the “neuroleptic activity (in words)” value in data set [1] is “very interesting neuroleptic activity”. The ED50 in the data set on mouse [2] was found to be 1.6 mg/kg; in the data set with dogs (setting [4]), 0.02 mg/kg; in the data set on young rat it was 8.5 mg/kg; in the data set on mouse [3] it was 2.2 mg/kg. Also, the LD50 at 48 h in the data set “acute toxicity (DL50)” amounted to 100 mg/kg.

With `COc1ccc2c(C3CCN(CCCC(=O)c4ccc(F)cc4)CC3)c[nH]c2c1` [Example 3, p-fluoro-ω-[4'-(6"-methoxy-3"-indolyl)-piperidino]-butyrophenone hydrochloride], the “neuroleptic activity (in words)” value in data set [1] is reported as “very interesting neuroleptic activity”. In addition, the ED50 with mouse [2] was found to be 0.9 mg/kg; in the data set on dogs (setting [4]) it was 0.01 mg/kg; in the data set on young rat, 2 mg/kg; with mouse [3] it was 1.2 mg/kg. Also, the LD50 at 48 h in the data set “acute toxicity (DL50)” is 190 mg/kg.

On to `COc1ccc2[nH]cc(C3CCN(CCCC(=O)c4ccc(F)cc4)CC3)c2c1` [Example 4, p-fluoro-ω-[4'-(5"-methoxy-3"-indolyl)-piperidino]-butyrophenone hydrochloride], for which the “neuroleptic activity (in words)” value in data set [1] is recorded as “very interesting neuroleptic activity”. Moreover, the ED50 in the data set on mouse [2] is 0.2 mg/kg; in the data set on dogs (setting [4]), below 0.3 mg/kg; in the data set with young rat, 6 mg/kg; in the data set on mouse [3], 1 mg/kg. In addition, the LD50 at 48 h in the data set “acute toxicity (DL50)” was determined as 300 mg/kg.

For `O=C(CCCN1CCC(c2c[nH]c3ccccc23)CC1)c1ccc(Br)cc1` [Example 6, p-bromo-ω-[4'-(3"-indolyl)-piperidino]-butyrophenone hydrochloride], in “acute toxicity (DL50)”, the LD50 at 48 h came to 300 mg/kg.

Consider `O=C(CCCN1CCC(c2c[nH]c3ccccc23)CC1)c1ccccc1` [Example 7, ω-[4'-(3'-indolyl)-piperidino]-butyrophenone hydrochloride], for which the ED50 in the data set on mouse [2] was 4 mg/kg; in the data set with dogs (setting [4]) it was 0.06 mg/kg; in the data set on young rat, 11 mg/kg; with mouse [3], 7 mg/kg. The same molecule registered an LD50 at 48 h in “acute toxicity (DL50)” of 300 mg/kg.

As for `Cn1cc(C2CCN(CCCC(=O)c3ccc(F)cc3)CC2)c2ccccc21` [Example 2, p-fluoro-ω-[4'-(1"-methyl-3"-indolyl)-piperidino]-butyrophenone hydrochloride], the ED50 in the data set on mouse [2] turned out to be 4.5 mg/kg; with dogs, 0.2 mg/kg; with young rat it was 12 mg/kg; in the data set on mouse [3], 5.2 mg/kg. This molecule came in with a median lethal dose (LD50) at 48 h in the data set “acute toxicity (DL50)” of 185 mg/kg.
